The record followed here is the supplement of paper PMC10307832.

Assay in all cases: relative viability (nuclei count vs DMSO), 5 days (fraction); higher = more cells survive
Compound in assay [1]: CCN1C(=O)C2=CC(=C(N=C2N(C1=O)C3CC3)N)C(=O)N + C[C@@H](Oc1cc(-c2cnn(C3CCNCC3)c2)cnc1N)c1c(Cl)ccc(F)c1Cl [Crizotinib] (partner 1 µM)
The essentials: (§1)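 Lung cancer cell lines, seeded in 1536-well plates, were treated the following day by pin tool with a single drug or with five library-drug doses (not always all listed) in √10 steps on top of a fixed anchor-drug dose. Cells were fixed and nuclei stained in one step after 5 days, and nuclei were counted. Relative viability is the nuclei count for treated wells divided by that for vehicle wells, reported as medians of duplicate plates.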

Compound in assay [2]: CCN1C(=O)C2=CC(=C(N=C2N(C1=O)C3CC3)N)C(=O)N + COc1cccc2cc(-c3nc([C@H]4CC[C@H](C(=O)O)CC4)n4ncnc(N)c34)[nH]c12 [OSI-027] (partner 0.5 µM)
The essentials:
as §1

Compound in assay [3]: CCN1C(=O)C2=CC(=C(N=C2N(C1=O)C3CC3)N)C(=O)N + Nc1nc2[nH]cc(CCc3ccc(C(=O)N[C@@H](CCC(=O)O)C(=O)O)cc3)c2c(=O)[nH]1 [Pemetrexed] (partner 0.2 µM)
The essentials: as §1

Compound in assay [4]: CCN1C(=O)C2=CC(=C(N=C2N(C1=O)C3CC3)N)C(=O)N + Nc1ncn([C@H]2C[C@H](O)[C@@H](CO)O2)c(=O)n1 [Decitabine] (partner 2 µM)
The essentials: as §1

Compound in assay [5]: CCN1C(=O)C2=CC(=C(N=C2N(C1=O)C3CC3)N)C(=O)N + CC(C)C[C@H](NC(=O)[C@H](Cc1ccccc1)NC(=O)c1cnccn1)B(O)O [Bortezomib] (partner 0.002 µM)
In a few lines: as §1

Consider PC-14, for which the relative viability in assay [1] (first compound 0.253 µM) was 0.973; in assay [1] (first compound 0.8 µM), 0.939; in assay [1] (first compound 2.53 µM), 0.845; in assay [1] (first compound 8 µM) it was 0.941; in assay [2] (first compound 0.253 µM), 0.856; in assay [2] (first compound 0.8 µM), 0.799. Moreover, the relative viability stood at 0.831 in assay [2] (first compound 2.53 µM); 0.907 in assay [2] (first compound 8 µM); 0.133 in assay [3] (first compound 0.253 µM); 0.14 in assay [3] (first compound 0.8 µM); 0.141 in assay [3] (first compound 2.53 µM); 0.149 in assay [3] (first compound 8 µM). Also, the relative viability in assay [4] (first compound 0.253 µM) was 0.207; in assay [4] (first compound 0.8 µM), 0.171; in assay [4] (first compound 2.53 µM), 0.244; in assay [4] (first compound 8 µM) it was 0.193; in assay [5] (first compound 0.253 µM) it was 0.966; in assay [5] (first compound 0.8 µM), 0.932. For the same cell line, the results for the relative viability in assay [5] (first compound 2.53 µM) and in assay [5] (first compound 8 µM) were 0.807 and 0.919, respectively.
For RERF-LC-KJ, the relative viability in assay [1] (first compound 0.253 µM) was 0.783; in assay [1] (first compound 0.8 µM), 0.842; in assay [1] (first compound 2.53 µM), 0.796; in assay [1] (first compound 8 µM), 0.858; in assay [2] (first compound 0.253 µM), 0.6; in assay [2] (first compound 0.8 µM) it was 0.638. Further, the relative viability is 0.584 in assay [2] (first compound 2.53 µM); 0.632 in assay [2] (first compound 8 µM); 0.473 in assay [3] (first compound 0.253 µM); 0.448 in assay [3] (first compound 0.8 µM); 0.472 in assay [3] (first compound 2.53 µM); 0.481 in assay [3] (first compound 8 µM). For the same cell line, the relative viability in assay [4] (first compound 0.253 µM) was determined as 0.772; in assay [4] (first compound 0.8 µM), 0.742; in assay [4] (first compound 2.53 µM) it was 0.68; in assay [4] (first compound 8 µM), 0.593; in assay [5] (first compound 0.253 µM) it was 1.01; in assay [5] (first compound 0.8 µM), 1.03. For the same cell line, the relative viability in assay [5] (first compound 2.53 µM) was determined as 1.02; in assay [5] (first compound 8 µM), 1.01.
For SK-LU-1, the relative viability in assay [1] (first compound 0.253 µM) came to 1.11; in assay [1] (first compound 0.8 µM), 0.749; in assay [1] (first compound 2.53 µM), 0.805; in assay [1] (first compound 8 µM), 0.931; in assay [2] (first compound 0.253 µM) it was 0.414; in assay [2] (first compound 0.8 µM), 0.381. The relative viability is 0.353 in assay [2] (first compound 2.53 µM); 0.369 in assay [2] (first compound 8 µM); 0.933 in assay [3] (first compound 0.253 µM); 1.06 in assay [3] (first compound 0.8 µM); 1 in assay [3] (first compound 2.53 µM); 1.04 in assay [3] (first compound 8 µM). Further, the relative viability in assay [4] (first compound 0.253 µM) stood at 0.63; in assay [4] (first compound 0.8 µM), 0.72; in assay [4] (first compound 2.53 µM) it was 0.782; in assay [4] (first compound 8 µM) it was 0.669; in assay [5] (first compound 0.8 µM) it was 1.36; in assay [5] (first compound 2.53 µM), 1.29. In assay [5] (first compound 8 µM), the relative viability is 1.29.
As for SW 1573, the relative viability in assay [1] (first compound 0.253 µM) is 0.855; in assay [1] (first compound 0.8 µM), 0.744; in assay [1] (first compound 2.53 µM), 0.696; in assay [1] (first compound 8 µM), 0.772; in assay [2] (first compound 0.253 µM) it was 0.534; in assay [2] (first compound 0.8 µM) it was 0.612. In addition, the relative viability came out at 0.675 in assay [2] (first compound 2.53 µM); 0.587 in assay [2] (first compound 8 µM); 0.855 in assay [3] (first compound 0.253 µM); 0.884 in assay [3] (first compound 0.8 µM); 0.844 in assay [3] (first compound 2.53 µM); 0.791 in assay [3] (first compound 8 µM). The relative viability was 0.573 in assay [4] (first compound 0.253 µM); 0.582 in assay [4] (first compound 0.8 µM); 0.434 in assay [4] (first compound 2.53 µM); 0.476 in assay [4] (first compound 8 µM); 0.994 in assay [5] (first compound 0.253 µM); 1.14 in assay [5] (first compound 0.8 µM). Besides, the relative viability in assay [5] (first compound 2.53 µM) amounted to 0.935; in assay [5] (first compound 8 µM) it was 1.04.
Regarding UMC-11, the relative viability is 0.619 in assay [1] (first compound 0.253 µM); 0.632 in assay [1] (first compound 0.8 µM); 0.584 in assay [1] (first compound 2.53 µM); 0.611 in assay [1] (first compound 8 µM); 0.5 in assay [2] (first compound 0.253 µM); 0.463 in assay [2] (first compound 0.8 µM). The relative viability in assay [2] (first compound 2.53 µM) stood at 0.506; in assay [2] (first compound 8 µM), 0.521; in assay [3] (first compound 0.253 µM), 0.867; in assay [3] (first compound 0.8 µM) it was 0.846; in assay [3] (first compound 2.53 µM), 0.761; in assay [3] (first compound 8 µM) it was 0.845. The relative viability turned out to be 0.71 in assay [4] (first compound 0.253 µM); 0.604 in assay [4] (first compound 0.8 µM); 0.617 in assay [4] (first compound 2.53 µM); 0.457 in assay [4] (first compound 8 µM); 0.714 in assay [5] (first compound 0.253 µM); 0.649 in assay [5] (first compound 0.8 µM). Further, the relative viability worked out at 0.674 in assay [5] (first compound 2.53 µM) and 0.836 in assay [5] (first compound 8 µM).
